Assay results from patent publication US5698556A, “Methotrexate analogs and methods of using same” (priority 1995, dated 1997).
Like-named read-outs stand apart in the source and are kept apart here.

Key:
[1] = compared with MTX; cited from earlier work
CCRF/CEM Cells = assay: Growth inhibition of human leukemia cells (CCRF/CEM); type: cell-based; details: 120 hours continuous exposure
Procedure: Two suspensions of human leukemia cell lines were employed in this study. […] Cells were maintained at 37° C. with 5% CO2 in air, and were cultured using standard sterile tissue culture techniques.
Prior to toxicity studies, cells were maintained 48 hours in the absence of added inhibitor. […] Inhibitor concentrations ranging from 10^-12 to 10^-4 M were added to the cultures except for a control culture, which contained no added drug. Cell counts were performed by hematometer counting during 120 hours of continuous exposure to the drugs. The IC50 value was obtained by interpolation from graphs of percent growth inhibition plotted against drug concentration.

K562 cells = assay: Growth inhibition of human leukemia cells (K562); type: cell-based; details: for IC50: Homo sapiens; for times more compound as compared with MTX required to inhibit cell growth by 50%: relative to MTX
Procedure: The IC50 value is the drug concentration which inhibits cancer cell growth by 50%.
Two suspensions of human leukemia cell lines were employed in this study. The myelogenous leukemia cell line K562 was cultured in RPMI 1640 (JRH Biosciences) containing 10% filtered fetal bovine serum (FBS; Irvine Scientific), and the lymphoblastic leukemia cell line CCRF/CEM was cultured in RPMI 1640 containing 20% FBS, 100 U/ml penicillin (GIBCO Laboratories, Grand Island, N.Y.), and 100 μg/ml streptomycin (GIBCO). Cells were maintained at 37° C. with 5% CO2 in air, and were cultured using standard sterile tissue culture techniques.
Prior to toxicity studies, cells were maintained 48 hours in the absence of added inhibitor. Logarithmically growing cells were inoculated at 1×10^4 cells/ml in tissue culture grade Petri dishes (35×10 mm), and, following a suitable recovery period, were treated with chemical agents. Inhibitor concentrations ranging from 10^-12 to 10^-4 M were added to the cultures except for a control culture, which contained no added drug. Cell counts were performed by hematometer counting during 120 hours of continuous exposure to the drugs. The IC50 value was obtained by interpolation from graphs of percent growth inhibition plotted against drug concentration.

Chicken Liver DHFR = molecular target: T1, Chicken Liver DHFR (Gallus gallus, UniProt P00378); assay: Inhibition of DHFR, spectrophotometric assay (chicken liver DHFR); type: biochemical; details: for IC50: chicken liver DHFR, pH 7.0, read-out: ID50 (drug concentration which inhibits enzyme activity by 50%)
T1 construct: purchased Sigma Chemical Co. (St. Louis, Mo.); host or cells: chicken liver
T1 sequence (P00378 1-189): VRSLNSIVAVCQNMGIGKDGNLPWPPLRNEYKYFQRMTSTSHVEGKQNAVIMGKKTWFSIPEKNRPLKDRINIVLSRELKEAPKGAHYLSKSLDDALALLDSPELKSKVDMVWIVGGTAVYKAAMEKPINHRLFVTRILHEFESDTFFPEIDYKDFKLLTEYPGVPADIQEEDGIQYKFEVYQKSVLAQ
Procedure: (§1) Tests were conducted to determine the ID50 value for methotrexate analogs of the present invention. The ID50 value is the drug concentration which inhibits enzyme activity by 50%. […] DHFR activity was measured as the decrease over time in absorbance at 340 nm.
(§2) DHFR was diluted prior to each experiment in 50 mM potassium phosphate buffer (pH 7.0) containing 0.1 mM NADPH and 0.1% BSA.
(§3) Inhibition studies were carried out by adding to a 1.0 ml cuvette the assay solution containing all components except dihydrofolate, and then incubating the solution for 2 minutes at room temperature. The absorbance of the solution at 340 nm was recorded immediately following the addition of dihydrofolate. The mixtures were then incubated at room temperature for 5 minutes, and the absorbance at 340 nm was again recorded. […] ID50 values were determined by interpolation from graphs of percent of inhibition plotted against drug concentration.

L. casei DHFR = molecular target: T2, L. casei DHFR (Lacticaseibacillus casei, UniProt P00381); assay: Inhibition of DHFR, spectrophotometric assay (L. casei DHFR); type: biochemical; details: pH 7.0, read-out: ID50 (drug concentration which inhibits enzyme activity by 50%)
T2 construct: purchased New England Enzyme Center (Boston, Mass.); host or cells: MTX-resistant L. casei
T2 sequence (P00381 whole entry): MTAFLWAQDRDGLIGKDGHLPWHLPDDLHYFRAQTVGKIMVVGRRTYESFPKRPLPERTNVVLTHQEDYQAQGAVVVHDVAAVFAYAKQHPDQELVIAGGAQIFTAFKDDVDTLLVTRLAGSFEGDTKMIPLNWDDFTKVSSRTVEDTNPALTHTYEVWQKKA
Procedure: as §1, §2, §3

[2] = Metabolism in rabbit liver homogenate (formation of 7-OH-MTX); type: in vitro ADME, New Zealand white rabbit; details: pH 7.6
Procedure: For these experiments, freshly isolated liver from a New Zealand white rabbit was homogenized in 400 ml of cold buffer of pH 7.6 consisting of 10 mM Tris-HCl, 25 mM sucrose and 10 mM MgCl2. The homogenate was centrifuged at 1000×g for 20 minutes at 4° C., and the resulting pellet was resuspended in about 14 ml of the same buffer. […] Two ml samples of the homogenate were removed at 10 minute intervals. Samples were boiled S minutes to denature the proteins, and then centrifuged to pelletize cell debris. To determine inhibitor and 7-OH-MTX levels, 100 μl of the supernatant was analyzed by HPLC. For HPLC analysis, a Perkin-Elmer 410 LC solvent delivery system and a 5-μm IBM ODS column (4.1×250 mm) with a Guard column were employed. The mobile phase consisted of 0.1M monobasic sodium phosphate and 0.1M Tris-HCl in methanol at a final pH of 7.6. […] Detector output was recorded and integrated by a Perkin-Elmer LCI 100 integrator.

[3] = cited from earlier work
[4] = K562 cells, 120 hours continuous exposure, read-out: IC50

| SMILES | IC50 (CCRF/CEM Cells) | IC50 (K562 cells; [4]) | IC50 (Chicken Liver DHFR) | IC50 (L. casei DHFR) | also measured |
| --- | --- | --- | --- | --- | --- |
| CN(Cc1cnc2nc(N)nc(N)c2n1)c1c(F)cc(C(=O)N[C@@H](CCC(=O)O)C(=O)O)cc1F [3',5'-difluoroMTX] | – | – | – | – | antifolate antagonism / biological activity, in words [1]: little or no increase in biological activity as compared with MTX |
| CNc1nc2nc(N)nc(N)c2nc1CN(C)c1ccc(C(=O)N[C@@H](CCC(=O)O)C(=O)O)cc1 [7-CH3 NH-MTX, 4-amino-7-methylamino-N-10-methylpteroylglutamic acid] | 300 nM | 300 nM | 300 nM | 200 nM | times more compound as compared with MTX required to inhibit cell growth by 50% (K562 cells; K562 and CCRF/CEM cells): 25-40 times |
| CN(Cc1nc2c(N)nc(N)nc2nc1Cl)c1ccc(C(=O)N[C@@H](CCC(=O)O)C(=O)O)cc1 [7-Cl-MTX] | 10000 nM | 10000 nM | 20000 nM | 50000 nM | – |
| CN(Cc1nc2c(N)nc(N)nc2nc1F)c1ccc(C(=O)N[C@@H](CCC(=O)O)C(=O)O)cc1 [7-F-MTX] | 5000 nM | 850 nM | 1500 nM | 500 nM | – |
| Cc1nc2nc(N)nc(N)c2nc1CN(C)c1ccc(C(=O)N[C@@H](CCC(=O)O)C(=O)O)cc1 [7-methyl substituted MTX] | – | – | – | – | antifolate antagonism / biological activity, in words [1]: impaired antifolate antagonism |
| CN(Cc1cnc2nc(N)nc(N)c2n1)c1ccc(C(=O)N[C@@H](CCC(=O)O)C(=O)O)cc1 [MTX] | 11 nM | – | – | – | IC50 (K562 cells; K562, 120 h): 8 nM; metabolism to 7-OH-MTX, in words ([2]; over an hour, 37° C.): substantially metabolized to 7-OH-MTX within an hour; metabolised at 10 min ([2]; rabbit, liver homogenate): ~50%; remaining at 1 h ([2]; rabbit, liver homogenate): < 25%; renal and hepatic toxicity, in words ([3]; high dose regimen): associated with renal and hepatic toxicity; conversion in vivo, in words ([3]; man and monkeys): converted in vivo to 7-hydroxymethotrexate (7-OH-MTX) |

Now from value to compound, other results behind:

| IC50 (CCRF/CEM Cells) | IC50 (K562 cells; [4]) | IC50 (Chicken Liver DHFR) | IC50 (L. casei DHFR) | SMILES | also measured |
| --- | --- | --- | --- | --- | --- |
| 2000 nM | 1000 nM | 400 nM | 200 nM | CN(Cc1nc2c(N)nc(N)nc2nc1N=[N+]=[N-])c1ccc(C(=O)N[C@@H](CCC(=O)O)C(=O)O)cc1 [7-N3 -MTX] | – |
| 76 nM | 50 nM | 140 nM | 168 nM | CN(Cc1nc2c(N)nc(N)nc2nc1N)c1ccc(C(=O)N[C@@H](CCC(=O)O)C(=O)O)cc1 [7-NH2 -MTX, 4,7-diamino-N-10-methylpteroylglutamic acid] | ability to inhibit growth of leukemia cell lines, in words (K562 cells; K562 and CCRF/CEM cells): still effective at inhibiting the growth of the leukemia cell lines; times more compound as compared with MTX required to inhibit cell growth by 50% (K562 cells; K562 and CCRF/CEM cells): 6-7 times; metabolism to 7-OH-MTX, in words [2]: not even a slight metabolism of 7-NH2 -MTX to 7-OH-MTX could be detected over an hour; effectiveness as DHFR inhibitor, in words (Chicken Liver DHFR; chicken liver and L. casei DHFR): still relatively effective as a DHFR inhibitor |
| 5000 nM | 500 nM | 500 nM | 750 nM | CC(C)Nc1nc2nc(N)nc(N)c2nc1CN(C)c1ccc(C(=O)N[C@@H](CCC(=O)O)C(=O)O)cc1 [7-NHCH(CH3)2 -MTX] | – |
| 4000 nM | 850 nM | 2000 nM | 1200 nM | CCOc1nc2nc(N)nc(N)c2nc1CN(C)c1ccc(C(=O)N[C@@H](CCC(=O)O)C(=O)O)cc1 [7-OC2 H5 -MTX] | – |
| 4500 nM | 450 nM | 750 nM | 1000 nM | COc1nc2nc(N)nc(N)c2nc1CN(C)c1ccc(C(=O)N[C@@H](CCC(=O)O)C(=O)O)cc1 [7-OCH3 -MTX] | – |
| 6000 nM | 1000 nM | 200 nM | 670 nM | CC(C)Oc1nc2nc(N)nc(N)c2nc1CN(C)c1ccc(C(=O)N[C@@H](CCC(=O)O)C(=O)O)cc1 [7-OCH(CH3)2 -MTX] | – |
| – | 6000 nM | 10000 nM | 15000 nM | CN(Cc1nc2c(N)nc(N)nc2nc1P(=O)(O)O)c1ccc(C(=O)N[C@@H](CCC(=O)O)C(=O)O)cc1 [7-P(O)(OH)2 -MTX] | – |
